Measured values published in PubChem BioAssay AID1963865 (Molecular Pharmacology Branch, DTP, NCI, 2024).

Tested on: KRAS PDC multicell spheroid viability
Assay: Anticancer human tumor 825966-067-R-J1-PDC patient-derived colon carcinoma cell line growth inhibition [KRAS2]
Conditions: for IC50: curve of first compound; for viability, T/C: stronger effect = lower value
Outline: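 KRAS-mutant tumor cells were grown as spheroids with HUVEC endothelial cells and human MSCs as stroma. Targeted agents were tested alone and with KRAS pathway inhibitors. Doses started at or near clinical Cmax, or 10 microM, descending half-log.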

[1] = second compound 0.1 µM, first compound 0.01 µM
[2] = second compound 0.1 µM, first compound 0.0316 µM
[3] = second compound 0.1 µM, first compound 0.1 µM
[4] = second compound 0.1 µM, first compound 0.316 µM
[5] = second compound 0.1 µM, first compound 1 µM
[6] = second compound 0.1 µM, first compound 3.16 µM
[7] = second compound 0.316 µM, first compound 0.01 µM
[8] = second compound 0.316 µM, first compound 0.0316 µM
[9] = second compound 0.316 µM, first compound 0.1 µM
[10] = second compound 0.316 µM, first compound 0.316 µM
[11] = second compound 0.316 µM, first compound 1 µM
[12] = second compound 0.316 µM, first compound 3.16 µM
[13] = second compound 1 µM, first compound 0.01 µM
[14] = second compound 1 µM, first compound 0.0316 µM
[15] = second compound 1 µM, first compound 0.1 µM
[16] = second compound 1 µM, first compound 0.316 µM
[17] = second compound 1 µM, first compound 1 µM
[18] = second compound 1 µM, first compound 3.16 µM
[19] = second compound 3.16 µM, first compound 0.01 µM
[20] = second compound 3.16 µM, first compound 0.0316 µM
[21] = second compound 3.16 µM, first compound 0.1 µM
[22] = second compound 3.16 µM, first compound 0.316 µM
[23] = second compound 3.16 µM, first compound 1 µM
[24] = second compound 3.16 µM, first compound 3.16 µM
[25] = second compound 10 µM, first compound 0.01 µM
[26] = second compound 10 µM, first compound 0.0316 µM
[27] = second compound 10 µM, first compound 0.1 µM
[28] = second compound 10 µM, first compound 0.316 µM
[29] = second compound 10 µM, first compound 1 µM
[30] = second compound 10 µM, first compound 3.16 µM
[31] = second compound 0.1 µM, first compound 10 µM
[32] = second compound 0.316 µM, first compound 10 µM
[33] = second compound 1 µM, first compound 10 µM
[34] = second compound 3.16 µM, first compound 10 µM
[35] = second compound 10 µM, first compound 10 µM
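Further: spheroids exposed to compounds for 7 days.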
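Wherever viability, T/C is given: 100% = DMSO vehicle control viability.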

SMILES	IC50 (second compound 0.1 µM)	IC50 (second compound 0.316 µM)	IC50 (second compound 1 µM)	IC50 (second compound 3.16 µM)	IC50 (second compound 10 µM)	viability, T/C [2]	viability, T/C [3]	viability, T/C [4]	viability, T/C [5]	viability, T/C [6]	viability, T/C [8]	viability, T/C [9]	viability, T/C [10]	viability, T/C [11]	viability, T/C [14]	viability, T/C [15]	viability, T/C [20]	viability, T/C [21]	viability, T/C [26]	viability, T/C [27]	also measured
CC(=O)OC12COC1CC(O)C1(C)C(=O)C(O)C3=C(C)C(OC(=O)C(O)C(NC(=O)OC(C)(C)C)c4ccccc4)CC(O)(C(OC(=O)c4ccccc4)C21)C3(C)C (stereo not given) + CC1OCC2(CCN(c3cnc(Sc4ccnc(N)c4Cl)c(N)n3)CC2)C1N	< 10 nM	< 10 nM	< 10 nM	< 10 nM	< 10 nM	15.2%	18.4%	17.1%	17.3%	22%	12%	13.3%	12%	15.8%	18%	18.9%	10.2%	10.7%	7.25%	10%	viability, T/C [1]: 17.9%; viability, T/C [7]: 13.1%; viability, T/C [12]: 15.9%; viability, T/C [13]: 17.5%; viability, T/C [16]: 12.3%; viability, T/C [17]: 13%; viability, T/C [18]: 21.6%; viability, T/C [19]: 10.3%; viability, T/C [22]: 6.99%; viability, T/C [23]: 7.72%; viability, T/C [24]: 11.7%; viability, T/C [25]: 7.08%; viability, T/C [28]: 6.28%; viability, T/C [29]: 4.82%; viability, T/C [30]: 10.1%
CN(C)C/C=C/C(=O)Nc1cc2c(Nc3ccc(F)c(Cl)c3)ncnc2cc1O[C@H]1CCOC1 + CC1OCC2(CCN(c3cnc(Sc4ccnc(N)c4Cl)c(N)n3)CC2)C1N	> 100 nM	> 100 nM	> 100 nM	> 100 nM	> 100 nM	91.4%	80.2%	–	–	–	105%	101%	–	–	84.2%	96.8%	88.1%	85.9%	94.9%	124%	viability, T/C (second compound 0.1 µM, first compound 0.000316 µM): 103%; viability, T/C (second compound 0.1 µM, first compound 0.001 µM): 100%; viability, T/C (second compound 0.1 µM, first compound 0.00316 µM): 126%; viability, T/C [1]: 120%; viability, T/C (second compound 0.316 µM, first compound 0.000316 µM): 93.4%; viability, T/C (second compound 0.316 µM, first compound 0.001 µM): 86.6%; viability, T/C (second compound 0.316 µM, first compound 0.00316 µM): 94.2%; viability, T/C [7]: 79.1%; viability, T/C (second compound 1 µM, first compound 0.000316 µM): 104%; viability, T/C (second compound 1 µM, first compound 0.001 µM): 118%; viability, T/C (second compound 1 µM, first compound 0.00316 µM): 99%; viability, T/C [13]: 81.8%; viability, T/C (second compound 3.16 µM, first compound 0.000316 µM): 100%; viability, T/C (second compound 3.16 µM, first compound 0.001 µM): 105%; viability, T/C (second compound 3.16 µM, first compound 0.00316 µM): 93.9%; viability, T/C [19]: 86.3%; viability, T/C (second compound 10 µM, first compound 0.000316 µM): 81.1%; viability, T/C (second compound 10 µM, first compound 0.001 µM): 87.2%; viability, T/C (second compound 10 µM, first compound 0.00316 µM): 108%; viability, T/C [25]: 107%
COC(=O)c1ccc2c(C(=Nc3ccc(N(C)C(=O)CN4CCN(C)CC4)cc3)c3ccccc3)c(O)[nH]c2c1 + CC1OCC2(CCN(c3cnc(Sc4ccnc(N)c4Cl)c(N)n3)CC2)C1N	739 nM	1610 nM	611 nM	570 nM	< 31.6 nM	100%	77.4%	83.1%	38.8%	0.34%	83.5%	85.1%	84.3%	88.5%	96%	83.1%	89.7%	92.2%	24.4%	32.6%	viability, T/C [31]: 0.23%; viability, T/C [12]: 0.25%; viability, T/C [32]: 0.21%; viability, T/C [16]: 92.5%; viability, T/C [17]: 19.6%; viability, T/C [18]: 0.22%; viability, T/C [33]: 0.2%; viability, T/C [22]: 86.4%; viability, T/C [23]: 15.2%; viability, T/C [24]: 0.17%; viability, T/C [34]: 0.19%; viability, T/C [28]: 5.99%; viability, T/C [29]: 2.24%; viability, T/C [30]: 0.2%; viability, T/C [35]: 0.32%
O=C(c1cc(Cc2n[nH]c(=O)c3ccccc23)ccc1F)N1CCN(C(=O)C2CC2)CC1 + CC1OCC2(CCN(c3cnc(Sc4ccnc(N)c4Cl)c(N)n3)CC2)C1N	> 10000 nM	> 10000 nM	> 10000 nM	> 10000 nM	985 nM	78.2%	67.3%	82%	71.1%	80.6%	79.2%	76.2%	92.6%	67.6%	77.8%	91.5%	105%	109%	104%	89.2%	viability, T/C [31]: 81.4%; viability, T/C [12]: 85%; viability, T/C [32]: 86.6%; viability, T/C [16]: 75.7%; viability, T/C [17]: 68%; viability, T/C [18]: 62.5%; viability, T/C [33]: 82.2%; viability, T/C [22]: 95.1%; viability, T/C [23]: 102%; viability, T/C [24]: 102%; viability, T/C [34]: 78.1%; viability, T/C [28]: 77.5%; viability, T/C [29]: 54.9%; viability, T/C [30]: 17.4%; viability, T/C [35]: 17.6%
